{
  "source": "paper PMC3537892",
  "about": "(Clinical cancer research : an official journal of the …, 2012)",
  "tested_on": "RENCA renal cancer cells grafted in the renal capsule",
  "test": "Orthotopic RENCA renal cancer allograft",
  "format": "in vivo, BALB/c mice",
  "conditions": "three i.v. injections in fourth week after grafting; p < 0.003",
  "data": [
    {"smiles": "CC(=O)O[C@H]1C(=O)[C@@]2(C)[C@H]([C@H](OC(=O)c3ccccc3)[C@]3(O)C[C@H](OC(=O)[C@H](O)[C@@H](NC(=O)c4ccccc4)c4ccccc4)C(C)=C1C3(C)C)[C@]1(OC(C)=O)CO[C@@H]1C[C@@H]2O", "note": "[PTX, paclitaxel]", "values": [
      {"measurement": "tumor volume compared to vehicle control", "result": "significantly decreased tumor volume"}
    ]}
  ]
}
